pIC50: −log10 of the molar value. ≈ marks a conversion by molar mass, not a printed value.
Assays:
[1] = Aqueous solubility of the compound at pH 6.8; assay type: physicochemical
[2] = target: Voltage-gated inwardly rectifying potassium channel KCNH2 (Homo sapiens, UniProt Q12809); test: Binding affinity to human ERG by radioligand binding assay
Voltage-gated inwardly rectifying potassium channel KCNH2, sequence (Q12809 whole entry): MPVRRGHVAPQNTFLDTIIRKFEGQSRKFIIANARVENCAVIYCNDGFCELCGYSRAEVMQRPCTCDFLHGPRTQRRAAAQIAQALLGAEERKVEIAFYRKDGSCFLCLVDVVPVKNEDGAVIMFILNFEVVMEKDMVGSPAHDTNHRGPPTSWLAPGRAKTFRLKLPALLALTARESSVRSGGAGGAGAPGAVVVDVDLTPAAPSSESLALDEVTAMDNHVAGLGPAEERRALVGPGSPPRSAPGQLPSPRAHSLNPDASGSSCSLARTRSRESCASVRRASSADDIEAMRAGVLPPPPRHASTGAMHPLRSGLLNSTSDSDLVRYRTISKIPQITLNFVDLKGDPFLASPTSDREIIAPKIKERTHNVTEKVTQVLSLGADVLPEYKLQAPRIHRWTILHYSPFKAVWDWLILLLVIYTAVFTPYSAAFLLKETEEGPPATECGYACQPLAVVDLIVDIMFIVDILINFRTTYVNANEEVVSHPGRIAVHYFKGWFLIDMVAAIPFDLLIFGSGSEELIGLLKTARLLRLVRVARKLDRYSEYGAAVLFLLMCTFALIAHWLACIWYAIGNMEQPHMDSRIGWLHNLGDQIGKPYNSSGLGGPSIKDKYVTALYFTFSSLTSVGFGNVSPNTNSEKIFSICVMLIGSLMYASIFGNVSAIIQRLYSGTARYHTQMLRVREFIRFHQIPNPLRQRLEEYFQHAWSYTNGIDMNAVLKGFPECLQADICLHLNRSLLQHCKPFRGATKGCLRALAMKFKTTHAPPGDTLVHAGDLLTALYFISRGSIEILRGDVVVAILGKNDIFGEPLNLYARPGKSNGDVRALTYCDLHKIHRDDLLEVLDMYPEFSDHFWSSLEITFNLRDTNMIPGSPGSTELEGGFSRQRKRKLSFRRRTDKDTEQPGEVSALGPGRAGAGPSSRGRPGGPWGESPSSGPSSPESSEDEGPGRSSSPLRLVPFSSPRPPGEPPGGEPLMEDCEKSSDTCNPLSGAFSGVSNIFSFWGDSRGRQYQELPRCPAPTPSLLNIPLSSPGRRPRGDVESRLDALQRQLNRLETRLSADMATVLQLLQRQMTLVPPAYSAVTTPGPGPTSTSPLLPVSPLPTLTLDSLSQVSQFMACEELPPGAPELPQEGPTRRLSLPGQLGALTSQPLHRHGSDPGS

SMILES | solubility [1] [µM] | pIC50 [2]
CC(C)(C)c1cc(NC(=O)c2cnc3cc(Oc4ncnc5c4CNC5)ccn23)no1 | 456 (≈ 191 µg/mL) | 5.04
CC(C)(C)c1cc(NC(=O)n2ccc3nc(Oc4ncnc5c4CNC5)ccc32)no1 | 260 (≈ 109 µg/mL) | 4.59
C[C@H]1Cc2c(ncnc2Oc2ccc3c(ccn3C(=O)Nc3cc(C4(C(F)(F)F)CC4)on3)c2)CN1 | 34 (≈ 16.9 µg/mL) | 5.13
CC(C)(C)c1cc(NC(=O)n2ccc3ccc(Oc4ncnc5c4CNC5)cc32)no1 | 81 (≈ 33.9 µg/mL) | 4.68
CC1(c2cc(NC(=O)c3ccn4cc(Oc5ncnc6c5CNC6)ccc34)n[nH]2)CC1 | 280 (≈ 116 µg/mL) | –
C[C@H]1Cc2c(ncnc2Oc2ccc3ccn(C(=O)Nc4cc(C5(C(F)(F)F)CC5)on4)c3c2)CN1 | 3 (≈ 1.5 µg/mL) | 5.07
CC(C)(C)c1cc(NC(=O)n2ccc3ncc(Oc4ncnc5c4CNC5)cc32)no1 | 240 (≈ 101 µg/mL) | < 4.52
CC(C)(C)c1cc(NC(=O)n2ncc3cc(Oc4ncnc5c4CNC5)ccc32)no1 | 9 (≈ 3.78 µg/mL) | 5.11
CC(C)(C)c1cc(NC(=O)n2ccc3cc(Oc4ncnc5c4CNC5)cnc32)no1 | 25 (≈ 10.5 µg/mL) | 5.24

Reference: ChEMBL document CHEMBL3808377, “Core Replacements in a Potent Series of VEGFR-2 Inhibitors and Their Impact on Potency, Solubility, and hERG” (ACS Med Chem Lett, 2016)
